Results reported in patent publication US20090263397A1, “Combination anti-cancer therapy” (priority 2007, published 2009).
Where “and” joins values, the source holds several entries; their conditions need not be identical. Equal values may be shown once. Entries after “also recorded” stand apart in the source; their conditions may differ.

What was measured:
IGF-1R [1] = test: RTK capture array, pIGF-1R in H292 cells; type: cell-based, human
Experimental: Also shown is the effect of taxol (100 nM) on IGF-1R phosphorylation for H292 and H358 tumor cells. Phosphorylation was captured 24 hours after dosing with taxol and realized using the Proteome Profiler™ RTK capture Array (R & D Systems).
A. Effect of varying concentrations of taxol on pIGF-1R for H292 tumor cells. pIGF-1R was measured 24 hours after dosing and realized using the proteome profiler RTK capture array (R & D Systems).
A. H292 NSCLC tumor cells were treated with 30 nM paclitaxel for varying time points, alone or in the presence of 3 μM OSI-906. The phosphorylation of IGF-1R was determined by an RTK capture array, in duplicate (pIGF-1R=phosphorylated IGF-1R).
(§1) Proteome profiler arrays housing 42 different RTKs were purchased from R&D systems (Minneapolis, Minn.) and processed according to the manufacturer's protocol. RTKs included on the array include: HER1, HER2, HER3, HER4, FGFR1, FGFR2a, FGFR3, FGFR4, IR, IGF-1R, Ax1, Dtk, Mer, HGFR, MSPR, PDGFRα, PDGFRβ, SCFR, Flt-3, M-CSFR, c-Ret, ROR1, ROR2, Tie-1, Tie-2, TrkA, TrkB, TrkC, VEGFR1, VEGFR2, VEGFR3, MuSK, EphA1, EphA2, EphA3, EphA4, EphA6, EphA7, EphB1, EphB2, EphB4, EphB6. This array was used as an RTK capture assay for determining pIGF-1R levels.

IGF-1R complex = test: phosphorylation of the IGF-1R complex in MDA-1186 (data not shown); type: cell-based, human
Akt [2] = test: Western blotting of Akt phosphorylation, H292; type: cell-based, human; conditions: H292 in vitro; 30 nM paclitaxel; 2, 6, 24 hours
Experimental: H292 cells were treated with 30 nM paclitaxel (in the presence and absence of 3 μM OSI-906), and the phosphorylation state for Akt was determined by Western blotting.

IGF-1R [3] = test: In vivo pharmacodynamic study, pIGF-1R in H292 xenografts; conditions: mice bearing H292 xenografts; 24 mg/kg paclitaxel; 24 hours
Experimental: B. Mice bearing H292 xenografts were treated with 24 mg/kg paclitaxel for 24 hours prior to harvesting tumors. Tumors were profiled for pIGF-1R levels using the RTK capture array, in duplicate. Four separate animals were used: Control (Ctrl) A1; Control (Ctrl) A2; Paclitaxel-treated A1; and Paclitaxel-treated A2.
Proteome profiler arrays housing 42 different RTKs were purchased from R&D systems (Minneapolis, Minn.) and processed according to the manufacturer's protocol. […] This array was used as an RTK capture assay for determining pIGF-1R levels.
Female athymic nude nu/nu CD-1 mice (6-8 wks, 22-29 g) were obtained from Charles River Laboratories (Wilmington, Mass.). Animals were allowed to acclimate for a minimum of one week prior to initiation of a study. Throughout the studies, animals were allowed sterile rodent chow and water ad libitum, and animals were maintained under specific pathogen free conditions.
NCI—H292 NSCLC tumor cells were harvested from cell culture flasks during exponential cell growth, washed twice with sterile PBS, counted and resuspended in PBS to a suitable concentration before s.c. implantation on the right flank of female nu/nu CD-1 mice. Tumors were established to 200+/−50 mm in size before randomization into treatment groups. Paclitaxel or cisplatin were administered at the indicated dose, and tumors from treated mice were harvested at 24 hours after dosing. […]

IGF-1R [4] = test: RTK capture array, pIGF-1R in H358 cells; conditions: taxol 100 nM, 24 hours
MDA-MB-231 cells = test: Caspase 3/7 Glo apoptosis assay, MDA-MB-231; type: cell-based, human; conditions: 24 hours
Experimental: Apoptosis measurements were captured 24 hours after dosing, and apoptosis was assayed by measurement of caspase 3/7 activity. Measurement of apoptosis: Induction of apoptosis as measured by increased Caspase 3/7 activity was determined using the Caspase 3/7 Glo assay (Promega Corporation, Madison, Wis.). Cell lines were seeded at a density of 3000 cells per well in a 96-well plate. 24 hours after plating cells were dosed with varying concentrations of drug, either as a single agent or in combination. The signal for Caspase 3/7 Glo was determined 24 hours after dosing. The caspase 3/7 activity was normalized to cell number per well, using a parallel plate treated with Cell Titer Glo (Promega Corporation, Madison, Wis.). Signal for each well was normalized using the following formula: Caspase 3/7 Glo luminescence units/Cell Titer Glo fraction of DMSO control.

A673 tumor cells [5] = test: Caspase 3/7 Glo apoptosis assay, A673; type: cell-based, human; conditions: in the presence of doxorubicin (333 nM or 1 uM), listed as OSI-906
Experimental: FIG. 3: OSI-906 synergizes with doxorubicin to inhibit cell growth and survival in A673 ES (Ewing's Sarcoma) tumor cells. A. Effect of varying concentrations of doxorubicin, in the presence and absence of 5 μM OSI-906, on the proliferation of A673 tumor cells. Proliferation data were collected 48 hours after dosing and realized using the Cell Titer Glo™ assay (Promega). The dotted line in the plot represents the calculated theoretical expectation if the combination was additive in nature and was determined using the Bliss model for additivity. B. Effect of varying concentrations of OSI-906 (0, 300 nM, and 1 μM) on the induction of apoptosis for A673 tumor cells, in the presence or absence of 333 nM doxorubicin. Apoptosis was determined by measuring caspase 3/7 activity (Caspase GlO™, Promega), and measurements were captured 48 hours after dosing.
FIG. 5: OSI-906 has the potential to promote greater synergy with doxorubicin in ES tumor cells than neutralizing IGF-1R antibodies. Effect of varying concentrations of OSI-906 (0, 300 nM, 1 μM, and 3 μM) or the IGF-1R neutralizing antibody α-IR3 (10 ug/ml) on the induction of apoptosis for A673 tumor cells, in the presence or absence of 333 nM or 1 uM doxorubicin. Apoptosis was determined by measuring caspase 3/7 activity (Caspase GlO™, Promega), and measurements were captured 24 hours after dosing.

SK-ES-1 tumor cells [6] = test: Caspase 3/7 Glo apoptosis assay, SK-ES-1; type: cell-based, human; conditions: in the presence of 1 μM doxorubicin, 24 hours
Experimental: Effect of varying concentrations of OSI-906 (0, 300 nM, 1 μM, 3 μM, or 5 μM) on the induction of apoptosis for SK-ES-1 tumor cells, in the presence or absence of 1 μM doxorubicin. Apoptosis was determined by measuring caspase 3/7 activity (Caspase GlO™, Promega), and measurements were captured 24 hours after dosing. Measurement of apoptosis: Induction of apoptosis as measured by increased Caspase 3/7 activity was determined using the Caspase 3/7 Glo assay (Promega Corporation, Madison, Wis.). Cell lines were seeded at a density of 3000 cells per well in a 96-well plate. 24 hours after plating cells were dosed with varying concentrations of drug, either as a single agent or in combination. The signal for Caspase 3/7 Glo was determined 24 hours after dosing. The caspase 3/7 activity was normalized to cell number per well, using a parallel plate treated with Cell Titer Glo (Promega Corporation, Madison, Wis.). Signal for each well was normalized using the following formula: Caspase 3/7 Glo luminescence units/Cell Titer Glo fraction of DMSO control.

A673 tumor cells [7] = test: Cell Titer Glo overall cell growth, A673; type: cell-based, human; conditions: 5 μM OSI-906, 48 hours, versus Bliss additivity
Experimental: A. Effect of varying concentrations of doxorubicin, in the presence and absence of 5 μM OSI-906, on the proliferation of A673 tumor cells. Proliferation data were collected 48 hours after dosing and realized using the Cell Titer Glo™ assay (Promega). The dotted line in the plot represents the calculated theoretical expectation if the combination was additive in nature and was determined using the Bliss model for additivity. […] Measurement of Cell Proliferation: Cell proliferation was determined using the Cell Titer Glo assay (Promega Corporation, Madison, Wis.). Tumor cells were seeded at a density of 3000 cells per well in a 96-well plate. 24 hours after plating cells were dosed with varying concentrations of drug, either as a single agent or in combination. Using parallel replicate plates, the signal for Cell Titer Glo was determined 24 hours after dosing.

SK-ES-1 tumor cells [8] = test: Cell Titer Glo overall cell growth, SK-ES-1; type: cell-based, human
Experimental: Measurement of Cell Proliferation: Cell proliferation was determined using the Cell Titer Glo assay (Promega Corporation, Madison, Wis.). […] Using parallel replicate plates, the signal for Cell Titer Glo was determined 24 hours after dosing.

IR = test: Proteome Profiler RTK capture array, pIR in A673; type: cell-based, human; conditions: for phosphorylation of IR, single agent: OSI-906 3 μM, Doxorubicin 500 nM, MAB391 10 ug/ml
Experimental: (§2) Effect of OSI-906 (3 μM), Doxorubicin (500 nM), the combination of OSI-906+ doxorubicin, MAB391 (10 ug/ml), and the combination of MAB391+ doxorubicin on the phosphorylation states for IR and IGF-1R. Phosphorylation of IR and IGF-1R was realized using the Proteome Profiler™ RTK capture Array (R & D Systems).
as §1

H460 tumor cells [9] = test: Caspase 3/7 Glo apoptosis assay, H460; type: cell-based, human; conditions: 24 hours
Experimental: (§3) The combination of varying concentrations of OSI-906 (30 nM-3 μM) with 3 nM Taxol on the induction of apoptosis at 24 hours post dosing (Caspase GlO™, Promega) was determined for a panel of 5 NSCLC tumor cell lines (H460, H292, H322, H358, and Calu6).
A. Effect of varying concentrations of OSI-906, alone or in the presence of 12 nM Taxol, on apoptosis for H460 tumor cells. Apoptosis was measured 24 hours after dosing and determined by caspase 3/7 activity (Caspase GlO™, Promega). […] The dotted line represents the theoretical expectation for additivity and was calculated using the Bliss model for additivity.
(§4) Measurement of apoptosis: Induction of apoptosis as measured by increased Caspase 3/7 activity was determined using the Caspase 3/7 Glo assay (Promega Corporation, Madison, Wis.). Cell lines were seeded at a density of 3000 cells per well in a 96-well plate. 24 hours after plating cells were dosed with varying concentrations of drug, either as a single agent or in combination. The signal for Caspase 3/7 Glo was determined 24 hours after dosing. The caspase 3/7 activity was normalized to cell number per well, using a parallel plate treated with Cell Titer Glo (Promega Corporation, Madison, Wis.). Signal for each well was normalized using the following formula: Caspase 3/7 Glo luminescence units/Cell Titer Glo fraction of DMSO control.

H292 tumor cells = test: Caspase 3/7 Glo apoptosis assay, H292; type: cell-based, human; conditions: OSI-906 30 nM-3 μM with 50 uM cisplatin, 24 hours, compared with single agents
Experimental: The combination of varying concentrations of OSI-906 (30 nM-3 μM) with 50 uM cisplatin on the induction of apoptosis at 24 hours post dosing (Caspase Glo, Promega) was determined for a panel of 5 NSCLC tumor cell lines (H460, H292, H322, H358, and Calu6). The fold induction in apoptosis greater than the sums achieved by the single agents is noted in the table.
as §4

H322 tumor cells = test: Caspase 3/7 Glo apoptosis assay, H322; type: cell-based, human
Experimental: as §3
Measurement of apoptosis: Induction of apoptosis as measured by increased Caspase 3/7 activity was determined using the Caspase 3/7 Glo assay (Promega Corporation, Madison, Wis.). Cell lines were seeded at a density of 3000 cells per well in a 96-well plate. 24 hours after plating cells were dosed with varying concentrations of drug, either as a single agent or in combination. The signal for Caspase 3/7 Glo was determined 24 hours after dosing. The caspase 3/7 activity was normalized to cell number per well, using a parallel plate treated with Cell Titer Glo (Promega Corporation, Madison, Wis.). Signal for each well was normalized using the following formula: Caspase 3/7 Glo luminescence units/Cell Titer Glo fraction of DMSO control. All graphs were generated using PRISM® software (Graphpad Software, San Diego, Calif.).

H358 tumor cells = test: Caspase 3/7 Glo apoptosis assay, H358; type: cell-based, human; conditions: Taxol 3 nM, 24 hours
Experimental: as §3
The effect of varying concentrations of OSI-906 (0, 0.3 nM, 1 μM, 3 μM, and 5 μM) on apoptosis in the presence or absence of Taxol (3 nM) for H292 and H358 NSCLC tumor cell lines. Apoptosis measurements were determined by measuring caspase 3/7 activity (Caspase GlO™, Promega) and were captured 24 hours after dosing.
as §4

H460 tumor cells [10] = test: Cell Titer Glo overall cell growth, H460; type: cell-based, human
Experimental: B. Effect of varying concentrations of taxol, alone or in the presence of 5 μM OSI-906 on overall cell growth. Overall cell growth was determined by the Cell Titer Glo™ assay (Promega) and measured 72 hours after dosing. The dotted line represents the theoretical expectation for additivity and was calculated using the Bliss model for additivity. Measurement of Cell Proliferation: Cell proliferation was determined using the Cell Titer Glo assay (Promega Corporation, Madison, Wis.). Tumor cells were seeded at a density of 3000 cells per well in a 96-well plate. 24 hours after plating cells were dosed with varying concentrations of drug, either as a single agent or in combination. Using parallel replicate plates, the signal for Cell Titer Glo was determined 24 hours after dosing.

MDA-1186 tumor cells = test: Caspase 3/7 Glo apoptosis assay, MDA-1186; type: cell-based, human
Experimental: The effect of varying concentrations of OSI-906 (0, 0.3 nM, 1 uM, 3 μM, and 5 μM) on apoptosis in the presence or absence of Taxol (10 nM) or cisplatin (50 μM) for the MDA-1186 SCCHN tumor cell line. Apoptosis measurements were determined by measuring caspase 3/7 activity (Caspase Glo, Promega) and were captured 24 and 48 hours after dosing.
as §4

Akt [11] = test: Western blotting of Akt phosphorylation, A673; conditions: 24 hour; for Akt pathway activity / activation state, single agent: OSI-906 3 uM, Doxorubicin 500nM or 1 μM
Erk = test: Western blotting of Erk phosphorylation, A673; conditions: 24 hour; for MAPK (Erk) pathway activity / activation state, single agent: OSI-906 3 uM, Doxorubicin 500nM or 1 μM
[12] = system: Akt phosphorylation (pAkt-S473); test: Western blotting of Akt phosphorylation, MDA-MB-231
IGF-1R [13] = test: Proteome Profiler RTK capture array, pIGF-1R in A673; conditions: for phosphorylation of IGF-1R, single agent: OSI-906 3 μM, Doxorubicin 500 nM, MAB391 10 ug/ml
Experimental: as §2, §1

**Q.** Which IGF-1R phosphorylation (IGF-1R [1]; H292, taxol 100 nM, 24 hours) does the source give for `CC(=O)O[C@H]1C(=O)[C@@]2(C)[C@H]([C@H](OC(=O)c3ccccc3)[C@]3(O)C[C@H](OC(=O)[C@H](O)[C@@H](NC(=O)c4ccccc4)c4ccccc4)C(C)=C1C3(C)C)[C@]1(OC(C)=O)CO[C@@H]1C[C@@H]2O` [taxol, paclitaxel] here?
**A.** Its IGF-1R phosphorylation is “promote an increase in IGF-1R phosphorylation”.

**Q.** And the pIGF-1R over time (IGF-1R [1]; H292 in vitro, 30 nM paclitaxel, 2 and 6 hours)?
**A.** Its pIGF-1R over time is “time-dependent increase in pIGF-1R”.

**Q.** What about the EC50 (IGF-1R [1]; Homo sapiens, NCI-H292, H292, 24 hours after dosing, read-out: EC50 for promoting phosphorylation of IGF-1R) of the same compound?
**A.** The EC50 was 10 nM.

**Q.** And the “phosphorylation of the IGF-1R complex” value (IGF-1R complex)?
**A.** Its value is “promote phosphorylation of the IGF-1R complex”.

**Q.** And the pAkt over time (Akt [2])?
**A.** The pAkt over time was “modest increase in the Akt survival pathway, however this pathway is further driven upon prolonged 6 hour exposure to paclitaxel”.

**Q.** What about the “pIGF-1R levels in tumors” value (IGF-1R [3]) of the same compound?
**A.** The value was “upregulated”.

**Q.** What about the IGF-1R phosphorylation (IGF-1R [4]) of the same compound?
**A.** Its IGF-1R phosphorylation is “Only in H292 tumor cells did taxol promote an increase in IGF-1R phosphorylation”.

**Q.** With `CC1(O)CC(c2nc(-c3ccc4ccc(-c5ccccc5)nc4c3)c3c(N)nccn23)C1` (stereo not drawn) [Compound D, cis-3-[8-amino-1-(2-phenyl-quinolin-7-yl)-imidazo[1,5-a]pyrazin-3-yl]-1-methyl-cyclobutanol] as the compound, how does the “induction in apoptosis (caspase 3/7 activity), combination” value (MDA-MB-231 cells; 1 μM doxorubicin and 0.3 μM compound D) read?
**A.** Its value is “about 3 fold”.

**Q.** And the “apoptosis (caspase 3/7 activity), combination with doxorubicin” value (A673 tumor cells [5])?
**A.** Its value is “synergistic promotion of apoptosis; also recorded: synergistic increase in doxorubicin-mediated apoptosis; also recorded: extent of cooperativity appears to be greater at higher concentrations of OSI-906, i.e. 3 μM, than that achieved maximally by a-IR3; also recorded: synergistic induction of apoptosis”.

**Q.** What about the “apoptosis (caspase 3/7 activity), combination with doxorubicin” value (SK-ES-1 tumor cells [6]) of the same compound?
**A.** Its value is “synergistic promotion of apoptosis”.

**Q.** And the “overall cell growth, combination with doxorubicin” value (A673 tumor cells [7])?
**A.** Its value is “synergistic promotion of apoptosis and inhibition of overall cell growth”.

**Q.** And the “overall cell growth, combination with doxorubicin” value (SK-ES-1 tumor cells [8])?
**A.** The value was “synergistic promotion of apoptosis and inhibition of overall cell growth”.

**Q.** What about the “phosphorylation of IR, single agent” value (IR) of the same compound?
**A.** Its value is “achieves inhibition for both pIR and pIGF-1R”.

**Q.** And the “phosphorylation of IR, combination with doxorubicin” value (IR; with Doxorubicin 500 nM)?
**A.** Its value is “blocked upon co-treatment with OSI-906”.

**Q.** What about the “apoptosis, single agent” value (H460 tumor cells [9]; OSI-906 alone) of the same compound?
**A.** The value was “fails to promote apoptosis or significantly inhibit cell growth”.

**Q.** What about the “apoptosis, combination with taxol” value (H460 tumor cells [9]; in the presence of 12 nM Taxol, listed as OSI-906) of the same compound?
**A.** Its value is “synergistic promotion of apoptosis and inhibition of cell survival; also recorded: increase the pro-apoptotic effects of doxorubicin”.

**Q.** And the “increase in apoptosis (apoptosis gain), combination with cisplatin” value (H292 tumor cells)?
**A.** The value was > 3 fold and > 2 fold.

**Q.** And the “apoptosis gain, combination with taxol” value (H322 tumor cells; OSI-906 30 nM-3 μM with 3 nM Taxol, 24 hours)?
**A.** Its value is over 2 fold.

**Q.** What about the “induction of apoptosis, combination with paclitaxel” value (H322 tumor cells; paclitaxel and OSI-906) of the same compound?
**A.** Its value is “synergistic induction of apoptosis”.

**Q.** And the “synergy for the combination of OSI-906 and taxol (apoptosis)” value (H358 tumor cells)?
**A.** The value was “observed for H292, but not H358”.

**Q.** And the “overall cell growth, combination with taxol” value (H460 tumor cells [10]; 5 μM OSI-906 with taxol, 72 hours, versus Bliss additivity)?
**A.** Its value is “greater than additive inhibition of overall cell growth”.

**Q.** What about the “overall cell growth, single agent” value (H460 tumor cells [10]; OSI-906 alone) of the same compound?
**A.** The value was “fails to promote apoptosis or significantly inhibit cell growth”.

**Q.** What about the “apoptosis, single agent” value (MDA-1186 tumor cells; OSI-906 alone) of the same compound?
**A.** Its value is “did not achieve significant apoptosis as a single agent”.

**Q.** And the “apoptosis, combination with taxol” value (MDA-1186 tumor cells; Taxol 10 nM, 24 and 48 hours, listed as OSI-906)?
**A.** The value was “promoted a dose dependent increase in apoptosis; also recorded: synergistic induction of apoptosis”.

**Q.** And the “Akt activation state, co-treatment with doxorubicin” value (Akt [11]; OSI-906 3 uM plus doxorubicin)?
**A.** The value was “gain in activity can be inhibited upon co-treatment with OSI-906”.

**Q.** What about the “Akt pathway activity / activation state, single agent” value (Akt [11]) of the same compound?
**A.** Its value is “achieves inhibition of both pathways”.

**Q.** And the “Erk activation state, co-treatment with doxorubicin” value (Erk; OSI-906 3 uM plus doxorubicin)?
**A.** Its value is “gain in activity can be inhibited upon co-treatment with OSI-906”.

**Q.** And the “MAPK (Erk) pathway activity / activation state, single agent” value (Erk)?
**A.** Its value is “achieves inhibition of both pathways”.

**Q.** And the “Akt phosphorylation (pAkt-S473), combination with doxorubicin” value ([12]; combination of doxorubicin and Compound D)?
**A.** Its value is “efficacious at inhibiting the increase in Akt phosphorylation provoked by doxorubicin”.

**Q.** What about the “phosphorylation of IGF-1R, single agent” value (IGF-1R [13]) of the same compound?
**A.** The value was “achieves inhibition for both pIR and pIGF-1R”.

**Q.** What about the “phosphorylation of IGF-1R, combination with doxorubicin” value (IGF-1R [13]; with Doxorubicin 500 nM) of the same compound?
**A.** Its value is “blocked upon co-treatment with OSI-906”.

**Q.** With `COc1cccc2c1C(=O)c1c(O)c3c(c(O)c1C2=O)C[C@@](O)(C(=O)CO)C[C@@H]3O[C@H]1C[C@H](N)[C@H](O)[C@H](C)O1` [doxorubicin, reference compound] as the compound, how does the “induction in apoptosis (caspase 3/7 activity), single agent” value (MDA-MB-231 cells; doxorubicin alone) read?
**A.** The value was “only a small induction in apoptosis”.

**Q.** And the “phosphorylation of IR, single agent” value (IR)?
**A.** The value was “promotes an upregulation of the phosphorylation state for both IR and IGF-1R”.

**Q.** What about the “Akt pathway activity / activation state, single agent” value (Akt [11]) of the same compound?
**A.** Its value is “increase in the activation states for both Akt and Erk”.

**Q.** And the “MAPK (Erk) pathway activity / activation state, single agent” value (Erk)?
**A.** The value was “increase in the activation states for both Akt and Erk”.

**Q.** And the “Akt phosphorylation (pAkt-S473), single agent” value ([12]; 24 hours)?
**A.** The value was “promotes an increase in Akt phosphorylation”.

**Q.** And the “phosphorylation of IGF-1R, single agent” value (IGF-1R [13])?
**A.** Its value is “promotes an upregulation of the phosphorylation state for both IR and IGF-1R”.
